Consider 4 compounds from US20020012620A1, “BACTERIAL LEACHING OF COPPER AND ZINC WITHOUT IRON LEACHING” (priority 1998, published 2002).

By inhibition is commonly meant the change of the read-out against control, counted positive when it falls.

Test [1] deals with Thiobacillus ferrooxidans. As to the kind of experiment: Fe^2+ oxidation by resting cells (oxygen consumption rate, Oxygraph). Format: cell-based. The note with it: for inhibition of Fe^2+ oxidation: pH 3. The method, then: For the resting cell experiments, cells from large scale growth were filtered through Whatman™ No. 1 filter paper under suction before centrifugation at 8000× g. The cells were washed in 0.1 M β-alanine-H2SO4 (pH 2.3) and suspended in the same buffer to a concentration of 50 mg wet cells per ml.
The rate of ferrous iron and sulfur oxidation by the resting cells was determined by the oxygen consumption rate (nmol O2/min) in a Gilson™ Oxygraph with a Clark™ oxygen electrode at 25° C. The reaction mixture in a total volume of 1.2 ml contained 10-100 μl cell suspension, 0.5 μmol FeSO4 or 0.1 ml elemental sulfur suspension (32 mg in 500 ppm Tween-80™) and 0.1 M β-alanine-H2SO4 at pH 3.0 (standard condition) or varying inhibitory concentrations of salts at pH 3.0, as described below. Specifically, the effect of standard biological oxidation inhibitors, sodium azide and sodium cyanide in 0.1 M β-alanine-H2SO4 at pH 3.0 was studied.

Test [2] concerns T. ferrooxidans. Type of test: cell-based, Thiobacillus ferrooxidans. The protocol: (§1) Bacterial leaching was performed in shake flask experiments with 250 ml Erlenmeyer™ flasks containing 95 ml of HP medium with and without inhibitors unless otherwise specified, 4 ml of inoculum (Fe^2+-grown T. ferrooxidans, S^0-grown T. thiooxidans or both) and 5 g of floatation tailings supplied by Cominco Research were used, as described below. The flasks were grown at 26° C. on a rotary shaker at 150 rpm for 14 days. At various time intervals, 5 ml samples were taken to determine the concentrations of dissolved zinc and iron in the leachate as well as the percentage of zinc and iron remaining in the precipitate (after filtration of the leachate).

Test [3] relates to T. thiooxidans. Description: Bacterial leaching of flotation tailings with T. thiooxidans. Format: cell-based, Thiobacillus thiooxidans. The method, then: as §1
The subject of test [4] is T. ferrooxidans. The protocol: (§2) Growth inhibition studies were carried out in a Micro-oxymax™ respirometer at Cominco Research in Trail, British Columbia, wherein the O2 and CO2 consumption (at 52 minute intervals) of cultures at 26° C. were monitored over time (45-50 hours). Each flask contained a total volume of 100 ml, comprised of 5 ml inoculum culture plus 95 ml HP medium with varying concentrations of inhibitors plus Fe^2+ or S^0 as growth substrate (33.3 g FeSO4.7H2O or 25 g sulfur per liter). In the S^0 medium, HP medium was supplemented with 18 mg FeSO4.7H2O per liter. A growth curve was generated from the monitored O2 and CO2 consumption rates over time, as described below.

Test [5] concerns T. thiooxidans. The protocol:
as §2

The test system of test [6] is bioleaching of chalcopyrite (CuFeS2) and sphalerite mixture. Format: cell-based. The method, then:
as §1

For test [7], the system named is T. ferrooxidans and T. thiooxidans. The method, then: as §1
For test [8], the system named is bacterial leaching of a complex sulfide ore. Description: Bacterial leaching of a complex sulfide ore from the Flin Flon mine. Type of test: cell-based, Thiobacillus thiooxidans SM-7. The protocol: In this embodiment of the invention, bacterial strains Thiobacillus ferrooxidans SM-4 and Thiobacillus thiooxidans SM-6 (FIGS. 1, 3 and 4 and Table 2) or SM-7 (Table 5) were used. Specifically, T. ferrooxidans was grown on Fe^2+ or S^0 while T. thiooxidans was grown only on sulfur. HP medium, described in Suzuki et al, 1990, Appl Environ Microbiol 56:1620-1626, consisting of: 0.4 g (NH4)2SO4, 0.1 g K2HPO4, 0.4 g MgSO4.7H2O per liter, adjusted to pH 2.3 with H2SO4 was used for growth of bacteria on Fe^2+, for growth in a Micro-oxymax™ respirometer (both Fe^2+ and S^0 growth), and for mineral leaching experiments, as described below. For growth on Fe^2+, 33.3 g FeSO4.7H2O per liter (pH 2.3, filter-sterilized) was added to the above-described HP medium. Cultures were grown in shake flasks (100 ml) with 10% inoculum (v/v) in 250 ml Erlenmeyer™ flasks at 25° C. at 120 rpm for 24 hours. It is of note that for large scale growth, medium volume and flask size were increased.
. In fact, the highest level of Cu leaching using this ore is nearly five times greater than previously reported values in the absence of additional anions (Lizama and Suzuki, 1988, Biotechnol Bioeng 32: 110-116). […] That is, copper and zinc can be recovered from a complex ore without the need for separation simply by replacing the media following completion of copper leaching because of this lag time.

In test [9] the test system is Thiobacillus ferrooxidans. Description: S^0 oxidation by resting cells (oxygen consumption rate, Oxygraph). Format: cell-based.
The mark [10] stands for this setting: Acidithiobacillus ferrooxidans, pH 3, read-out: inhibition of Fe^2+ oxidation.
The mark [11] stands for this setting: Acidithiobacillus ferrooxidans, pH 3, read-out: inhibition of S^0 oxidation.

Values joined by “and” are separate entries in the source; they are usually repeats but may differ in a detail not shown here. Equal values may be shown once.

Turning to potassium nitrate, the “inhibition of Fe^2+ oxidation” value in test [1] is 90% and 100%. For the same compound, the Fe leaching result in test [2] is “reduced the Fe leaching similar to phosphate”; in [3], “reduced Fe leaching at high concentrations, albeit to a much smaller degree”. Besides, the Zn leaching result in test [2] is “considerably inhibited”.
For potassium phosphate, the “Fe^2+ oxidation during growth” value in [4] is on record as “inhibited”. Further, in [5], the “S^0 oxidation during growth” value is on record as “stimulated”. Also, in test [1], the “inhibition of Fe^2+ oxidation” value is listed as 60%. Besides, the “reduction in Zn leaching” value in test [2] is 50%. For the same compound, the Fe leaching result in [3] was “strongly inhibited”. For the same compound, in test [6], the “extraction of Zn” value is on record as “slightly reduced” and the iron oxidation entry is given as “reduced”. In [7], the Fe leaching entry was “no Fe leaching” and the “inhibition of Fe leaching relative to Zn leaching” value is recorded as “most effective inhibitor of Fe leaching without inhibiting Zn leaching extensively”. Also, in test [8], the Cu leaching result is “stimulation” and the Zn leaching result is reported as “stimulation”.
As to potassium chloride, the “Fe^2+ oxidation during growth” value in test [4] is listed as “inhibited”. Further, the “S^0 oxidation during growth” value in test [5] is “stimulated”. Besides, the “inhibition of Fe^2+ oxidation” value in test [1] was 30% and 40%. The “inhibition of S^0 oxidation” value in test [9] (pH 3) stood at 10%. Further, the Fe leaching result in test [3] is “reduced Fe leaching at high concentrations, albeit to a much smaller degree”. Moreover, the “extraction of Zn” value in test [6] was “stimulated”. In test [8], the Cu leaching result is on record as “stimulation” and the Zn leaching entry is “stimulation”.
Take `[N-]=[N+]=[N-]` [sodium azide, reference compound]: in test [1] (setting [10]), the inhibition at 10 µM was 90% and the inhibition at 50 µM was 95%. In addition, in [9] (setting [11]), the inhibition at 10 µM turned out to be 35% and the inhibition at 50 µM came out at 90%.
